Results published in patent US9980966B2, “Combinations of cancer therapeutics” (Merck Patent GmbH, priority 2014, dated 2018).

Key:
[1] = test system: Her2+ patient-derived breast model "CTG-0033"; test: Patient derived xenograft model of breast cancer, tumor volume efficacy study; type: in vivo, mice
Description: Female nude (Harlan; nu/nu) between 5-7 weeks were implanted subcutaneously with tumor fragments from the Her2+ patient-derived breast model “CTG-0033” (passage 3, i.e. the model has been serially passaged/grown from the original host 3 times) harvested from host animals. When host tumors reached 1-1.5 cm^3, tumors were harvested for re-implantation into animals to be used for the efficacy study. When the CTG-0033 (passage 4) tumors reached approximately 190 mm^3; animals were randomized by tumor volume into treatment or control groups (n=10) and dosing was initiated on Day 0. […] Tumor volumes were recorded twice per week. […] The other treatments were stopped at Day 75 and tumors were allowed to grow back for over 2 months with mice receiving no treatment.

[2] = test system: broad panel of cancer cell lines; test: Anti-tumor activity of the single agent in a panel of cancer cell lines; type: cell-based
Procedure: The cell lines were grown in the media recommended by the suppliers in the presence of 100 U/ml penicillinG and 100 μg/ml streptomycin supplied with 10% FCS (PAN, Germany).
Cell growth and treatment were performed in 96-well microtitre plates. Cells harvested from exponential phase cultures by trypsinization were plated in 190 μl of media at optimal seeding densities. The optimal seeding densities for each cell line were determined to ensure exponential growth for the duration of the experiment. All cells growing without anticancer agents were sub-confluent by the end of the treatment as determined by visual inspection. Compound dilutions in DMSO were performed in 96-well rigid PCR plates. Compounds were then diluted […] in RPMI medium. 190 μl of cells, after a 24-hour pre-growth period, were treated by mixing with 10 μl of the compound-containing media (resulting in a final DMSO concentration of 0.1%). The cells were allowed to grow at 37° C. for 72 hours. In addition, all experiments contained a few plates with cells that were processed for measurement immediately after the 24 hours recovery period. These plates contained information about the cell number that existed before treatment, at time zero, and served to calculate the cytotoxicity and/or growth inhibitory effects. […] Measurement of optical density was performed at 560 nm on a Victor 2 plate reader (Perkin Elmer, Germany). […]

## NC(=O)c1cccc2c(N[C@H](CN3CCC3)c3ccc(Cl)c(C(F)(F)F)c3)ncnc12 [Compound A, 4-[(S)-2-Azetidin-1-yl-1-(4-chloro-3-trifluoromethyl-phenyl)-ethylamino]-quinazoline-8-carboxylic acid amide]
[1]; Day 55, Compound A 30 mg/kg QD PO, Herceptin 15 mg/kg QW IV in the combination, CTG-0033 tumors in female nude mice
  tumor regression: 50%
[1]; Day 76, after treatment until Day 75
  tumor regression: −66%
[1]; after 71 days of regrowth period after cessation of treatment, log rank sum test p<0.05
  number of treated tumors that grew back: 6
[2]
  anti-tumor activity against a broad panel of cancer cell lines: potent anti-tumor activity
[2]; breast cancer cells, glioblastoma cells, endometrial cancer cells and ovarian carcinoma cells
  sensitivity of cancer cells to the compound: particularly sensitive
